What was measured:
hTEAD4 (nonacylated) [1] = molecular target: T1, hTEAD4 (nonacylated) (Homo sapiens, UniProt Q15561); test: Differential scanning fluorimetry; assay type: binding; settings: 20 μM protein, 80 μM inhibitor
T1 construct: N-terminal His6-tagged hTEAD4^217–434 was subcloned; made in house; host or cells: Escherichia coli BL21-CodonPlus (DE3)-RIPL
Experimental: Nonacylated hTEAD4 (20 μM) was incubated in the absence or presence of inhibitors (80 μM) at 25 °C for 10 min. Then, SYPRO orange (Sigma-Aldrich) at a final concentration of 5× was added and the mixture was heated at a ramp rate of 1 °C/min in a qPCR machine (Applied Biosystems). The derivative of the SYPRO orange fluorescent intensity is plotted as a function of temperature.

hTEAD4 (nonacylated) [2] = molecular target: T1, hTEAD4 (nonacylated); test: FP-based competitive binding assay with FITC-palmitate tracer; settings: relative to 19; for fold increase in the IC50 values: said of the IC50 values of both assays
Experimental: To serially diluted solution of the tested compounds in 5 μL assay buffer [HEPES (25 mM) and NaCl (150 mM), pH 6.5 buffer], freshly prepared 5 μL of 0.15 μM protein solution was added and incubated at room temperature for 10 min followed by 5 μL of 30 nM FITC-palmitate solution, giving 15 μL final assay volume, 50 nM protein, and 10 nM tracer. The assay plate was shaken at room temperature for 1 h before measuring the FP (Ex/Em: 485/535 nm).

[3] = Assay media stability (HPLC); assay type: physicochemical; settings: MES buffer, pH 6.5, 1 h, rt
Experimental: The compounds were incubated in MES (25 mM), pH 6.5 buffer or HEPES (25 mM) and NaCl (150 mM) pH 6.5 buffer for an hour at room temperature before injecting into a reverse-phase HPLC system (ThermoScientific_Ultimate 3000) equipped with a C18 column (2/50 Nucleodur C18 gravity 1.8 μm von Macherey-Nagel).

mTEAD4 (nonacylated) = molecular target: T2, mTEAD4 (nonacylated) (Mus musculus, UniProt Q62296); test: 1H–15N HSQC NMR; assay type: binding; settings: 0.5 mM compound, versus DMSO
T2 construct: made in house
T2 sequence (Q62296 210-427 limits assumed): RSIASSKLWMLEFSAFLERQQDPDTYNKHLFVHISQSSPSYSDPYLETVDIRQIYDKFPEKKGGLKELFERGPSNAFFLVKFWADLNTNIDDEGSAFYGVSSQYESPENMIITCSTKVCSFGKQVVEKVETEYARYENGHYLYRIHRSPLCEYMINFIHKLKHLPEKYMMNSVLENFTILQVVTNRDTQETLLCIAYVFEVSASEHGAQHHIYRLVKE
Experimental: The ^13C/^15N-labeled mTEAD4 was prepared following a protocol established earlier,[45] and the protein was deacylated as described above for hTEAD4. ^1H–^15N HSQC spectra in the presence of DMSO or the test compound (0.5 mM) were collected at 37 °C on a Bruker 600 MHz magnet equipped with a cryoprobe in 20 mM HEPES, pH 7.3 buffer containing 150 mM NaCl and 1 mM DTT. The spectra were processed and overlaid.

TEAD target gene ANKRD1 = test: RT-qPCR of TEAD target gene expression in HEK293 cells; assay type: cell-based; settings: 6 h
Experimental: HEK293 cells were treated with DMSO or the indicated compound for the indicated duration. RNA was extracted using the RNeasy Plus Mini Kit (QIAGEN, Hilden, Germany) following the manufacturer’s procedure. DNA was removed on the column by DNase digestion with the RNase-free DNase Set (QIAGEN, Hilden, Germany) according to the manufacturer’s instructions. Following the manufacturer’s protocol, cDNA templates were synthesized from 700 ng total RNA using the QuantiTect Reverse Transcription Kit (QIAGEN, Hilden, Germany).
The expression levels of the TEAD target gene ANKRD1 was assessed by real-time quantitative PCR. A total of 100 ng of cDNA was amplified using 500 nM gene-specific primers and SsoAdvanced Universal SYBR Green Supermix (Bio-Rad Laboratories, Feldkirchen, Germany) in a total volume of 10 μL for 50 cycles. All measurements were performed in both technical and biological triplicates using a CFX96 Touch Real-Time PCR Detection System (Bio-Rad Laboratories, Feldkirchen, Germany).
The sequences of primers for ANKRD1 were forward 5′-[…]-3′ and reverse 5′-[…]-3′. The sequences of primers for GAPDH were forward 5′-[…]-3′ and reverse 5′-[…]-3′.

[4] = molecular target: T3, hTEAD4 (nonacylated) with human YAP50–100 (Homo sapiens, UniProt Q15561); test: FP-based competitive TEAD–YAP interaction assay (FITC-hYAP50–100); assay type: binding; settings: versus 19
T3 construct: N-terminal His6-tagged hTEAD4^217–434 was subcloned; made in house; host or cells: Escherichia coli BL21-CodonPlus (DE3)-RIPL (TEAD4); solid-phase synthesis (YAP peptide)
T3 sequence (Q15561 217-434): as the sequence (Q62296 210-427 limits assumed) above, with I3V, R19Q, S35G, T48A, E67D, D91E, A96S, L142S counted along it
Experimental: All the TEAD–YAP binding experiments were performed in phosphate-buffered saline (PBS) (pH 7.5).
To serially diluted solution of the tested compounds in 5 μL of PBS, freshly prepared 5 μL of protein solution was added and incubated at room temperature for 10 min followed by addition of 5 μL of FAM-YAP^50–100 solution. The assay plate was shaken at room temperature for 1 h before measuring the FP (Ex/Em: 485/535 nm). Final protein and FAM concentrations are as follows (FAM/protein): hTEAD4 (nonacylated): 2 nM/5 nM, hTEAD4 (acylated): 3 nM/15 nM, mTEAD4_Cys360Ser: 10 nM/50 nM, and mTEAD4_Cys360Ala: 10 nM/50 nM.

hTEAD4 (nonacylated) [5] = molecular target: T1, hTEAD4 (nonacylated); test: Whole-protein ESI–MS of covalent modification; assay type: binding; settings: 8 equiv of compound, 1 h, rt
Experimental: The protein solution (1 μL 5 μM) was injected to UPLC-MS (ThermoScientific_UltiMate 3000 LC coupled to a Velos Pro MS) through a desalting column (MassPREP Online desalting, 2.1 × 10 mm). For reactions, 1 μM of the protein was incubated at room temperature for 1 h with 8 equiv of the compound in HEPES (25 mM) and NaCl (150 mM) pH 6.5 buffer. Then, the mixture was centrifuged before injecting 5 μL. The deconvolution of m/z values was performed using Promass Xcalibur software.

hTEAD4 (nonacylated) [6] = molecular target: T1, hTEAD4 (nonacylated); test: Thiol conjugation assay (CPM probe); assay type: binding; settings: for Inhibition of the CPM fluorescence signal increase: assay validation with known central pocket binders; for fold reduction of TEAD binding in the thiol conjugation assay: relative to 19
Experimental: To serially diluted solutions of the tested compounds in 5 μL of assay buffer [HEPES (25 mM) and NaCl (150 mM) pH 6.5], freshly prepared 5 μL of 0.45 μM protein solution was added and incubated at room temperature for 10 min, followed by addition of 5 μL of 0.45 μM CPM solution, giving a 15 μL final assay volume, 150 nM protein, and 150 nM CPM. The assay plate was shaken at room temperature for 1 h before measuring the fluorescence (Ex/Em: 380/470 nm). Compound 19 was used as an internal standard to determine 100% inhibition.
A library of 14,000 compounds was screened in 1536-well plates using pH 6.5 MES buffer. To the preincubated solution of nonacylated hTEAD4 (0.15 μM final concentration) and compound solution (12.5 μM final concentration), CPM (0.15 μM final concentration) was added, and the assay plates were incubated at room temperature for 50 min before measuring the fluorescence (Ex/Em: 360/465 nm) using Spectramax Paradigm (Molecular Devices). Z′ = 0.6–0.8 (10-plates).

TEAD central pocket = molecular target: TEAD central pocket; parameters: method as in PMID 26592798; settings: read-out: ITC Kd; cited from earlier work
hTEAD4 (nonacylated) [7] = molecular target: T1, hTEAD4 (nonacylated); test: Saturation binding of FITC-palmitate (FP); settings: 10 nM tracer
Experimental: To a serially diluted solution of nonacylated hTEAD4 in 12 μL of assay buffer [HEPES (25 mM) and NaCl (150 mM) pH 6.5], 8 μL of 25 nM FITC-palmitate solution was added, giving 20 μL final assay volume with a 10 nM tracer. The assay plate was incubated at room temperature for 1 h before measuring FP (Ex/Em: 485/535 nM).

[8] = parameters: method as in PMID 21164073; settings: acidic 2-OH group; cited from earlier work

T1 sequence (Q15561 217-434): as the sequence (Q62296 210-427 limits assumed) above, with I3V, R19Q, S35G, T48A, E67D, D91E, A96S, L142S counted along it

O=c1cc(CO)oc(C(Nc2ccccn2)c2ccc(Br)cc2)c1O (stereo not shown) [Compound 42, 2-((4-Bromophenyl)(pyridin-2-ylamino)methyl)-3-hydroxy-6-(hydroxymethyl)-4H-pyran-4-one]
ΔTm at 80 µM (hTEAD4 (nonacylated) [1]; read-out: Tm shift): -2 °C

O=c1cc(CO)oc(C(Nc2nccs2)c2ccccc2)c1O (stereo not shown) [Compound 27, 3-Hydroxy-6-(hydroxymethyl)-2-(phenyl(thiazol-2-ylamino)methyl)-4H-pyran-4-one]
Tm shift (hTEAD4 (nonacylated) [1]): did not induce any change
fold increase in the IC50 values (hTEAD4 (nonacylated) [2]): more than 20 fold

COc1c(C(Nc2ccccc2)c2ccccc2)oc(CO)cc1=O (stereo not shown) [Compound 45, 6-(Hydroxymethyl)-3-methoxy-2-(phenyl(phenylamino)methyl)-4H-pyran-4-one]
stability in assay medium [3]: stable
effect on 1H–15N HSQC spectrum (mTEAD4 (nonacylated)): did not induce a significant change
reduction of the mRNA level of ANKRD1 compared to the DMSO control (TEAD target gene ANKRD1): only a minimal effect
fold lower activity in TEAD–YAP interaction assay [4]: > 100 fold
modification of the protein (whole-protein ESI–MS) (hTEAD4 (nonacylated) [5]): modification of TEAD was not observed
Tm shift (hTEAD4 (nonacylated) [1]): did not induce any change
activity in the thiol conjugation assay (hTEAD4 (nonacylated) [6]): inactive

O=C(O)c1cccnc1Nc1cccc(C(F)(F)F)c1 [Compound 2, niflumic acid, reference compound]
Kd (TEAD central pocket): 28 µM
Inhibition of the CPM fluorescence signal increase (hTEAD4 (nonacylated) [6]): inhibited the signal increase in a dose-dependent manner

COc1c(C(Nc2ccccn2)c2ccccc2F)oc(CO)cc1=O (stereo not shown) [Compound 46, 2-((2-Fluorophenyl)(pyridin-2-ylamino)methyl)-6-(hydroxymethyl)-3-methoxy-4H-pyran-4-one]
activity in the thiol conjugation assay (hTEAD4 (nonacylated) [6]): inactive

CC(C)C(Nc1ccccc1)c1oc(CO)cc(=O)c1O (stereo not shown) [Compound 31, 3-Hydroxy-6-(hydroxymethyl)-2-(2-methyl-1-(phenylamino)propyl)-4H-pyran-4-one]
fold reduction of TEAD binding in the thiol conjugation assay (hTEAD4 (nonacylated) [6]): 100 fold

CCCCCCCCCCCCCCCC(=O)NCCCOCCOCCOCCCNC(=S)Nc1ccc(-c2c3ccc(=O)cc-3oc3cc(O)ccc23)c(C(=O)O)c1 [Compound S4, 2-(6-Hydroxy-3-oxoi-3H-xanthen-9-yl)-5-(3-(15-oxo-4,7,10-trioxa-14-azatriacontyl)thioureido)benzoic Acid]
Kd (hTEAD4 (nonacylated) [7]): 0.028 µM

O=c1cc(CO)oc(C(Nc2ncccn2)c2ccccc2)c1O (stereo not shown) [Compound 26, 3-Hydroxy-6-(hydroxymethyl)-2-(phenyl(pyrimidin-2-ylamino)methyl)-4H-pyran-4-one]
fold increase in the IC50 values (hTEAD4 (nonacylated) [2]): more than 20 fold

O=c1cc(CO)oc(C(Nc2ccccc2)c2ccccn2)c1O (stereo not shown) [Compound 40, 3-Hydroxy-6-(hydroxymethyl)-2-((phenylamino)(pyridin-2-yl)methyl)-4H-pyran-4-one]
fold lowering of inhibitory activity in the FP assay (hTEAD4 (nonacylated) [2]): 2–3 fold

O=c1cc(CO)oc(C(Nc2nc3ccccc3[nH]2)c2ccccc2)c1O (stereo not shown) [Compound 28, 2-(((1H-Benzo[d]imidazol-2-yl)amino)(phenyl)methyl)-3-hydroxy-6-(hydroxymethyl)-4H-pyran-4-one]
fold increase in the IC50 values (hTEAD4 (nonacylated) [2]): more than 20 fold

O=c1cc(CO)oc(C(Nc2ccccc2)C2CCCCC2)c1O (stereo not shown) [Compound 30, 2-(Cyclohexyl(phenylamino)methyl)-3-hydroxy-6-(hydroxymethyl)-4H-pyran-4-one]
fold reduction of TEAD binding in the thiol conjugation assay (hTEAD4 (nonacylated) [6]): 100 fold

O=c1cc(CO)occ1O [kojic acid]
pKa [8]: 7.9

O=c1cc(CO)oc(CNc2ccccc2)c1O [Compound 32, 3-Hydroxy-6-(hydroxymethyl)-2-((phenylamino)methyl)-4H-pyran-4-one]
fold reduction of TEAD binding in the thiol conjugation assay (hTEAD4 (nonacylated) [6]): 100 fold

O=C(CCl)c1ccccc1Nc1cccc(C(F)(F)F)c1 [Compound 3, reference compound]
Inhibition of the CPM fluorescence signal increase (hTEAD4 (nonacylated) [6]): inhibited the signal increase in a dose-dependent manner

O=C(O)c1ccccc1Nc1cccc(C(F)(F)F)c1 [Compound 1, flufenamic acid, reference compound]
Kd (TEAD central pocket): 73 µM
Inhibition of the CPM fluorescence signal increase (hTEAD4 (nonacylated) [6]): inhibited the signal increase in a dose-dependent manner

CCCCCCCCCCCCCCCC(=O)O [palmitic acid, reference compound]
Inhibition of the CPM fluorescence signal increase (hTEAD4 (nonacylated) [6]): inhibited the signal increase in a dose-dependent manner
